Here are results for 4 molecules from paper PMC6385087, “New Multitarget Hybrids Bearing Tacrine and Phenylbenzothiazole Motifs as Potential Drug Candidates for Alzheimer’s Disease” (Molecules, 2019).

One series deals with T1, Aβ1–42 self-aggregation (Homo sapiens, UniProt P05067).
T1 construct: Commercially available Aβ1-42 peptide was obtained from Aldrich; purchased Aldrich
The series is described as follows: Aβ1–42 self-aggregation inhibition, thioflavin T fluorescence assay. Conditions: for inhibition at 40 µM: read-out: Inhibition of Aβ-self-aggregation (%). Format: biochemical. The procedure:
[…]. Since the compounds of this series presented some solubility problems in methanol, the assays were performed with ligands at concentrations of 40 µM, i.e., half of the concentration usually used (80 µM) in these assays. […]. […] So, it appears that introduction of a chloro substituent in TAC and/or a hydroxyl group in the carbon linker are not well suited for the interaction with β-sheet secondary structure of Aβ aggregates. […].
Commercially available Aβ1-42 peptide was obtained from Aldrich and stored at −20 °C. It was treated with 1,1,1,3,3,3-hexafluoropropan-2-ol (HFIP) to avoid self-aggregation and reserved. HFIP pre-treated Aβ1–42 samples were re-dissolved in CH3CN/Na2CO3 (300 µM)/NaOH (250 µM) (48.3:48.3:4.3, v/v/v) solvent mixture in order to have a stable stock solution; this solution (500 µM) was further diluted in phosphate buffer (0.215 M, pH 8.0) to obtain 40 µM solution. The ligand, which was previously dissolved in methanol, was further diluted in phosphate buffer to a final concentration of 40 µM. Aβ1–42 aggregation was determined by measuring the fluorescence emission of Thioflavin T dye, with a Cary Eclipse Varian fluorimeter (Molecular Devices, San José, CA, USA).
After incubation for 24 h at 37 °C, without stirring, the samples were added to a 96-well plate (BD Falcon) with 180 µL of 5 µM ThT in 50 mM glycine-NaOH (pH 8.5) buffer. Blank samples were prepared for each concentration in a similar way, devoid of peptide. As for the control, a sample of the peptide was incubated under identical conditions but without the inhibitor. After 5-min incubation with the dye, the ThT fluorescence was measured at the following wavelengths: 446 nm (excitation) and 486 nm (emission). The percent inhibition of the self-induced aggregation due to the presence of the test compound was calculated by Equation (2), in which IFi and IF0 corresponded to the fluorescence intensities, in the presence and the absence of the test compound, minus the fluorescence intensities due to the respective blanks. I% = 100 − (IFi/IF0 × 100)(2)
The reported values were obtained as the mean ± S.E.M. of two different experiments.

The next series addresses T2, AChE from electric eel (Electrophorus electricus, UniProt O42275).
T2 construct: commercially available enzyme AChE 500 U (extracted from electrophorus electricus); purchased type VI-S; host or cells: extracted from electric eel
Description: biochemical. Conditions: means of two experiments, read-out: Inhibition of AChE (IC50). How it is done:
The analytical grade reagents were purchased from Sigma-Aldrich (St. Louis, MO, USA) and Acros (Thermo Fisher Scientific, Geel, Belgium) and were used without any further purification. The organic solvents were dried and distilled according to standard methods described in literature. […] The Proton and Carbon-13 NMR were recorded either on Bruker AVANCE III-300 (300 MHz and 75.5 MHz) or Bruker AVANCE III-400 (400 MHz and 100.5 MHz) NMR spectrometers (Billerica, MA, USA) at 25 °C using peaks of solvents as internal standard. The chemical shift values of protons or carbons were measured on a δ scale and the coupling constant values (J) were determined in Hertz. In the NMR representation, abbreviations are mentioned as: singlet represented by s, doublet represented by d, triplet represented by t, multiplet represented by m, double doublet represented by dd, and broad singlet represented by brs. The Leica Galen III hot stage apparatus (Leica Microsystems, Wetzlar, Germany) was used for measuring the melting points of compounds. […] The AChE inhibitory activity was measured in a 1 cm path length quartz cell through a Perkin Elmer Lambda 35 spectrophotometer equipped with a temperature programmer PTP1+1 Peltier System (T = 25.0 ± 0.1 °C) (Waltham, MA, USA). Electrospray ionization-mass (ESI-MS) measurements were carried out on a LCQ Fleet mass spectrometer (Thermo Scientific, S. Jose, CA, USA) operated in the ESI positive and negative ion modes.
Modified Ellman’s method was used as described previously for the determination of AChE activity. The AChE stock solution was prepared by dissolving commercially available enzyme AChE 500 U (extracted from electrophorus electricus) in 10 mL of TRIS buffer (50 mM, pH 8). HEPES buffer was used for the dilution of the enzyme to give the final AChE concentration. The assay solution consisted of 374 μL of 4-(2-hydroxyethyl)-1-piperazineethanesulfonic acid (Hepes) buffer (50 mM, pH 8.0), 476 μL of 3 mM bis(3-carboxy-4-nitrophenyl)disulfide (DTNB), 25 μL of AChE (type VI-S, from electric eel) stock solution, a variable volume (10–50 μL) of the compound’s stock solution (1 mg/mL of MeOH), and the necessary amount of methanol to attain the same volume of sample mixture (0.925 mL) in a 1 mL cuvette. Samples were left to react for 15 min and then the reaction was monitored at wavelength of 405 nm for 5 min, after adding 75 μL of 16 mM acetylthiocholine iodide (AChI) solution. Assays were run with a blank containing all the components except AChE, which was replaced by HEPES buffer. The velocities of the reaction were calculated as well as the enzyme activity. A control reaction was carried out using the sample solvent (methanol) in the absence of any tested compound, and it was considered as 100% activity. […] The inhibition curves were obtained by plotting the percentage of enzymatic inhibition versus inhibitor concentration and a calibration curve was obtained from which the linear regression parameters were calculated.

For a further series, the system named is SH-SY5Y cells. Description: Dose-response screening for non-toxic concentration, MTT reduction. Format: cell-based. Conditions: dose-response screening from 0.2 μM to 5 μM, 25 h. How it is done:
The neuroprotective effect of TAC-PhBTA conjugates was evaluated using SH-SY5Y cells treated with Aβ1–42 peptides or ascorbate/iron. For each compound, a dose-response curve was performed to select a non-toxic concentration in order to analyze its neuroprotective effect (Figure 3).
SH-SY5Y human neuroblastoma cell line (ATCC-CRL-2266) grown in Dulbecco’s modified Eagle’s medium (DMEM) obtained from Gibco-Invitrogen (Life Technologies Ltd., Liverpool, UK) with 10% heat inactivated fetal calf serum, containing 50 U/mL penicillin, and 50 μg/mL streptomycin, under a humidified atmosphere of 95% air-5% CO2 at 37 °C. Cells were plated at 0.12 × 10^6 cells/mL for cell viability assay. […]. As a result we selected a 2.5 μM final concentration for compound 16; 0.5 μM final concentration for compound 17; 0.2 μM final concentration for compounds 14 and 15; and a 1 μM final concentration for compounds 19 and 18. […] The compounds were added to the cell media 1 h before the incubation with Aβ1–42 or ferrous sulfate/L-ascorbic acid. Aβ1–42 or ferrous sulfate/L-ascorbic acid where incubated alone or with the compound for an additional 24 h. Aβ1–42 was prepared as 276.9 μM stock in sterile water and added to the medium at 1 μM final concentration. Ferrous sulfate was freshly prepared as 0.36 M stock in water and added to the medium at 500 μM final concentration. L-Ascorbic Acid was freshly prepared as 80 mM stock in water and added to the medium at 5 mM final concentration. Aβ1–42 was purchased from Bachem (Torrance, CA, USA) and ferrous sulfate and L-ascorbic acid from Sigma Chemical Co (St. Louis, MO, USA).
Cell viability was determined by a MTT (3-(4,5-dimethylthiazol-2-yl)-2,5-diphenyltetrazolium bromide) reduction test. In viable cells, the enzyme succinate dehydrogenase metabolizes MTT into formazan that absorbs light at 570 nm. Following the cell treatment protocol the medium was aspirated and 0.5 mL MTT (0.5 mg/mL) was added to each well. The plate was then incubated at 37 °C for 1 h 30 min protected from light. At the end of the incubation period the formazan precipitates were solubilized with 0.5 mL of acidic isopropanol (0.04 M HCl/isopropanol). The absorbance was measured at 570 nm. Cell reduction ability was expressed as a percentage of untreated control cells.
Background: Tetrazolium assays rely on reduction of a dye to a coloured formazan, in cell work by metabolically active cells.

The mark [1] stands for this setting: self-mediated Aβ42 aggregation, ThT fluorescence, CL = 40 μM, means of two experiments.

Molecules are shown by their SMILES. Where two headings read alike, the source gives them in different places.

T1 sequence (P05067 672-713 limits assumed): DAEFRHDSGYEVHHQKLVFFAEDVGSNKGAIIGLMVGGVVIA
T2 sequence (O42275 24-633): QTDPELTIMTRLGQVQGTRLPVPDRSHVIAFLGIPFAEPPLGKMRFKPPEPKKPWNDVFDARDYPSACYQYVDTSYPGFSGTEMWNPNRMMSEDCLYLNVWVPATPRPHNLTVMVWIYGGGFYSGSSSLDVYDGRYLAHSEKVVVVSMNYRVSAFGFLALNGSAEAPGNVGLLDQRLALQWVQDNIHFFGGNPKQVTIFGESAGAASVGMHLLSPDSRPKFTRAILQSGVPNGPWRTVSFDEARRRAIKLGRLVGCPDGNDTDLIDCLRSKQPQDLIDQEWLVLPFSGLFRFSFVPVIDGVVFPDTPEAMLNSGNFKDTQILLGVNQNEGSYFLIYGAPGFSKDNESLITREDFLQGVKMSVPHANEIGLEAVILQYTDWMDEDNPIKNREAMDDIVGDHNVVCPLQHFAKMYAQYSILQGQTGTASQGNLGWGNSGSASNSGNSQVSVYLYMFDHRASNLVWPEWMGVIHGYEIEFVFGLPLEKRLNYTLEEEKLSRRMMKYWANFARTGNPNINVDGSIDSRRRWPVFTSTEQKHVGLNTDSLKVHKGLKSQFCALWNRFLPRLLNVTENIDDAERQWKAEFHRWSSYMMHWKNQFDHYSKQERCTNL

Broadly, the inhibition is the share of the control response that was lost under treatment. Turning to `Nc1c2c(nc3ccccc13)CCCC2` [TAC, tacrine], at Aβ1–42 self-aggregation (read-out: Inhibition of Aβ self-aggregation (%)), the inhibition at 80 µM amounted to 11%. For the same molecule, the inhibition at 40 µM on Aβ1–42 self-aggregation was 11%.
In general, IC50 refers to the concentration at which inhibition is half-maximal. Regarding `COc1cc(-c2nc3ccccc3s2)ccc1OCC(=O)NCCCNc1c2c(nc3cc(Cl)ccc13)CCCC2` [compound 17, 2-(4-(Benzo[d]thiazol-2-yl)-2-methoxyphenoxy)-N-(3-((6-chloro-1,2,3,4-tetrahydroacridin-9-yl)amino)propyl)acetamide], the inhibition at 40 µM at Aβ1–42 self-aggregation (setting [1]) amounted to 32.5%. On AChE from electric eel, the IC50 is 130 nM. Besides, in the series with SH-SY5Y cells, the “Highest non-toxic concentration selected” value came to 0.5 µM.
`COc1cc(-c2nc3ccccc3s2)ccc1OCC(=O)NCCNc1c2c(nc3ccccc13)CCCC2` [compound 14, 2-(4-(Benzo[d]thiazol-2-yl)-2-methoxyphenoxy)-N-(2-((1,2,3,4-tetrahydroacridin-9-yl)amino)ethyl)acetamide]: the inhibition at 40 µM on Aβ1–42 self-aggregation (setting [1]) stood at 44.6%. Moreover, on AChE from electric eel, the half-maximal inhibitory concentration (IC50) amounted to 110 nM. The “Highest non-toxic concentration selected” value in the series on SH-SY5Y cells is 0.2 µM.
On to `COc1cc(-c2nc3ccccc3s2)ccc1OCC(=O)NCC(O)CNc1c2c(nc3ccccc13)CCCC2` (stereo not drawn) [compound 18, 2-(4-(Benzo[d]thiazol-2-yl)-2-methoxyphenoxy)-N-(2-hydroxy-3-((1,2,3,4-tetrahydroacridin-9-yl)amino)propyl)acetamide], for which the “Inhibition of Aβ-self-aggregation (%)” value at Aβ1–42 self-aggregation (self-mediated Aβ42 aggregation, ThT fluorescence, CL = 40 μM, means of two experiments, 40 µM) came to 31.1%. Also, the inhibition at 40 µM at Aβ1–42 self-aggregation (setting [1]) was approximately 31%. Besides, the half-maximal inhibitory concentration (IC50) on AChE from electric eel is 270 nM. The “Highest non-toxic concentration selected” value in the series on SH-SY5Y cells was 1 µM.
